According to patent US6809065B2, “Herbicide containing substituted pyrazole derivative as active ingredient” (SDS Biotech K.K., priority 2001, dated 2004):

Tests used:
Chenopodium album [1] = test: Upland field foliage treatment (Test Example 1); format: in vivo; conditions: foliage treatment 14th day after sowing, wettable powder, 1 kg active ingredient per hectare, evaluated 21st day after application
Summary of the method: (§1)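 Foliar spray, 1 kg a.i./ha, wettable powder in water, applied 14 d post-sowing; seeds covered by ~1 cm upland soil. Index scoring at 21 d. Higher index = stronger weed control; for crops, lower index = greater safety.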

Stellaria media [2] = test: Upland field foliage treatment (Test Example 1); format: in vivo; conditions: foliage treatment 14th day after sowing, wettable powder, 1 kg active ingredient per hectare, evaluated 21st day after application
Summary of the method: as §1

Setaria viridis [3] = test: Upland field foliage treatment (Test Example 1); format: in vivo; conditions: foliage treatment 14th day after sowing, wettable powder, 1 kg active ingredient per hectare, evaluated 21st day after application
Summary of the method: as §1

Digitaria adscendens [4] = test: Upland field foliage treatment (Test Example 1); format: in vivo; conditions: foliage treatment 14th day after sowing, wettable powder, 1 kg active ingredient per hectare, evaluated 21st day after application
Summary of the method: as §1

[5] = test system: rice (Oryza sative, variety: Koshihikari); test: Paddy field treatment (Test Example 3), crop; format: in vivo, Oryza sativa; conditions: transplanted rice two-leaf period, water surface treatment 10th day after transplantation, 1 kg active ingredient per hectare, evaluated 21st day, lower index = higher safety
Summary of the method: (§2)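 Paddy soil in pots was puddled and flooded to 4 cm, weeds were sown, and two-leaf Koshihikari rice was transplanted at 3 cm depth. Ten days after transplanting, wettable powder was applied onto the water surface at 1 kg active ingredient per hectare. Herbicidal effect was index-scored 21 days later.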

Scirpus juncoides = test: Paddy field treatment (Test Example 3); format: in vivo; conditions: paddy pot, submerged 4 cm, dropped on water surface 10th day after transplantation, 1 kg active ingredient per hectare, evaluated 21st day
Summary of the method: as §2

Ammannia multiflora = test: Paddy field treatment (Test Example 3); format: in vivo; conditions: paddy pot, submerged 4 cm, dropped on water surface 10th day after transplantation, 1 kg active ingredient per hectare, evaluated 21st day
Summary of the method: as §2

Monochoria vaginalis = test: Paddy field treatment (Test Example 3); format: in vivo; conditions: paddy pot, submerged 4 cm, dropped on water surface 10th day after transplantation, 1 kg active ingredient per hectare, evaluated 21st day
Summary of the method: as §2

[6] = test system: wheat (Triticum aestivum); test: Upland field foliage treatment (Test Example 1), crop; format: in vivo; conditions: foliage treatment 14th day after sowing, 1 kg active ingredient per hectare, evaluated 21st day, lower index = higher safety
Summary of the method: as §1

soybean (Glycine max) [7] = test: as above; format: in vivo; conditions: foliage treatment 14th day after sowing, 1 kg active ingredient per hectare, evaluated 21st day, lower index = higher safety
Summary of the method: as §1

[8] = test system: wheat (Triticum aestivum); test: Upland soil treatment (Test Example 2), crop; format: in vivo; conditions: soil surface treatment next day after sowing, 1 kg active ingredient per hectare, evaluated 21st day, lower index = higher safety
Summary of the method: (§3)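 Scores were assigned 21 days after treatment on an index where higher means stronger weed control and, for crops, lower means greater safety. A wettable-powder formulation at 1 kg a.i./ha was applied to the soil surface one day after sowing seeds under about 1 cm of upland soil.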

soybean (Glycine max) [9] = test: Upland soil treatment (Test Example 2), crop; format: in vivo; conditions: soil surface treatment next day after sowing, 1 kg active ingredient per hectare, evaluated 21st day, lower index = higher safety
Summary of the method: as §3

Chenopodium album [10] = test: Upland soil treatment (Test Example 2); format: in vivo; conditions: soil surface treatment next day after sowing, wettable powder, 1 kg active ingredient per hectare, evaluated 21st day after application
Summary of the method: as §3

Stellaria media [11] = test: Upland soil treatment (Test Example 2); format: in vivo; conditions: soil surface treatment next day after sowing, wettable powder, 1 kg active ingredient per hectare, evaluated 21st day after application
Summary of the method: as §3

Setaria viridis [12] = test: Upland soil treatment (Test Example 2); format: in vivo; conditions: soil surface treatment next day after sowing, wettable powder, 1 kg active ingredient per hectare, evaluated 21st day after application
Summary of the method: as §3

Digitaria adscendens [13] = test: Upland soil treatment (Test Example 2); format: in vivo; conditions: soil surface treatment next day after sowing, wettable powder, 1 kg active ingredient per hectare, evaluated 21st day after application
Summary of the method: as §3

Echinochloa spp. = test: Paddy field treatment (Test Example 3); format: in vivo, Echinochloa crusgalli; conditions: paddy pot, submerged 4 cm, dropped on water surface 10th day after transplantation, 1 kg active ingredient per hectare, evaluated 21st day
Summary of the method: as §2

SMILES	Herbicidal activity Chenopodium album (Chenopodium album [1])	Herbicidal activity Stellaria media (Stellaria media [2])	Herbicidal activity Setaria viridis (Setaria viridis [3])	Herbicidal activity Digitaria adscendens (Digitaria adscendens [4])	Herbicidal activity Oryza sativa [5]	Herbicidal activity Scirpus juncoides (Scirpus juncoides)	Herbicidal activity Ammannia multiflora (Ammannia multiflora)	Herbicidal activity Monochoria vaginalis (Monochoria vaginalis)	Herbicidal activity Triticum aestivum [6]	Herbicidal activity Glycine max (soybean (Glycine max) [7])	Herbicidal activity Triticum aestivum [8]	Herbicidal activity Glycine max (soybean (Glycine max) [9])	Herbicidal activity Chenopodium album (Chenopodium album [10])	Herbicidal activity Stellaria media (Stellaria media [11])	Herbicidal activity Setaria viridis (Setaria viridis [12])	Herbicidal activity Digitaria adscendens (Digitaria adscendens [13])	Herbicidal activity Echinochloa spp. (Echinochloa spp.)
CCCc1c(Cl)c(-c2cccc(Cl)c2)nn1CC(=COC)C(=O)OC [Compound 40]	4 (herbicidal effect of not less than 70% by weight and less than 90% by weight)	4 (herbicidal effect of not less than 70% by weight and less than 90% by weight)	4 (herbicidal effect of not less than 70% by weight and less than 90% by weight)	4 (herbicidal effect of not less than 70% by weight and less than 90% by weight)	0 (herbicidal effect of not less than 0% by weight and less than 10% by weight)	3 (herbicidal effect of not less than 50% by weight and less than 70% by weight)	3 (herbicidal effect of not less than 50% by weight and less than 70% by weight)	3 (herbicidal effect of not less than 50% by weight and less than 70% by weight)	0 (herbicidal effect of not less than 0% by weight and less than 10% by weight)	0 (herbicidal effect of not less than 0% by weight and less than 10% by weight)	0 (herbicidal effect of not less than 0% by weight and less than 10% by weight)	0 (herbicidal effect of not less than 0% by weight and less than 10% by weight)	4 (herbicidal effect of not less than 70% by weight and less than 90% by weight)	4 (herbicidal effect of not less than 70% by weight and less than 90% by weight)	4 (herbicidal effect of not less than 70% by weight and less than 90% by weight)	4 (herbicidal effect of not less than 70% by weight and less than 90% by weight)	3 (herbicidal effect of not less than 50% by weight and less than 70% by weight)
COC=C(Cn1nc(-c2ccccc2)cc1SC)C(=O)OC [Compound 37]	5 (herbicidal effect of not less than 90% by weight)	5 (herbicidal effect of not less than 90% by weight)	4 (herbicidal effect of not less than 70% by weight and less than 90% by weight)	4 (herbicidal effect of not less than 70% by weight and less than 90% by weight)	0 (herbicidal effect of not less than 0% by weight and less than 10% by weight)	3 (herbicidal effect of not less than 50% by weight and less than 70% by weight)	3 (herbicidal effect of not less than 50% by weight and less than 70% by weight)	3 (herbicidal effect of not less than 50% by weight and less than 70% by weight)	0 (herbicidal effect of not less than 0% by weight and less than 10% by weight)	0 (herbicidal effect of not less than 0% by weight and less than 10% by weight)	0 (herbicidal effect of not less than 0% by weight and less than 10% by weight)	0 (herbicidal effect of not less than 0% by weight and less than 10% by weight)	4 (herbicidal effect of not less than 70% by weight and less than 90% by weight)	5 (herbicidal effect of not less than 90% by weight)	5 (herbicidal effect of not less than 90% by weight)	5 (herbicidal effect of not less than 90% by weight)	3 (herbicidal effect of not less than 50% by weight and less than 70% by weight)
COC=C(Cn1nc(-c2cccc(C)c2)c(Cl)c1C)C(=O)OC [Compound 17]	5 (herbicidal effect of not less than 90% by weight)	5 (herbicidal effect of not less than 90% by weight)	5 (herbicidal effect of not less than 90% by weight)	4 (herbicidal effect of not less than 70% by weight and less than 90% by weight)	0 (herbicidal effect of not less than 0% by weight and less than 10% by weight)	4 (herbicidal effect of not less than 70% by weight and less than 90% by weight)	5 (herbicidal effect of not less than 90% by weight)	5 (herbicidal effect of not less than 90% by weight)	0 (herbicidal effect of not less than 0% by weight and less than 10% by weight)	0 (herbicidal effect of not less than 0% by weight and less than 10% by weight)	0 (herbicidal effect of not less than 0% by weight and less than 10% by weight)	0 (herbicidal effect of not less than 0% by weight and less than 10% by weight)	4 (herbicidal effect of not less than 70% by weight and less than 90% by weight)	4 (herbicidal effect of not less than 70% by weight and less than 90% by weight)	4 (herbicidal effect of not less than 70% by weight and less than 90% by weight)	4 (herbicidal effect of not less than 70% by weight and less than 90% by weight)	5 (herbicidal effect of not less than 90% by weight)
COC=C(Cn1nc(-c2ccc(Cl)c(Cl)c2)cc1C)C(=O)OC [Compound 10]	4 (herbicidal effect of not less than 70% by weight and less than 90% by weight)	4 (herbicidal effect of not less than 70% by weight and less than 90% by weight)	4 (herbicidal effect of not less than 70% by weight and less than 90% by weight)	4 (herbicidal effect of not less than 70% by weight and less than 90% by weight)	0 (herbicidal effect of not less than 0% by weight and less than 10% by weight)	3 (herbicidal effect of not less than 50% by weight and less than 70% by weight)	3 (herbicidal effect of not less than 50% by weight and less than 70% by weight)	3 (herbicidal effect of not less than 50% by weight and less than 70% by weight)	0 (herbicidal effect of not less than 0% by weight and less than 10% by weight)	0 (herbicidal effect of not less than 0% by weight and less than 10% by weight)	0 (herbicidal effect of not less than 0% by weight and less than 10% by weight)	0 (herbicidal effect of not less than 0% by weight and less than 10% by weight)	4 (herbicidal effect of not less than 70% by weight and less than 90% by weight)	4 (herbicidal effect of not less than 70% by weight and less than 90% by weight)	4 (herbicidal effect of not less than 70% by weight and less than 90% by weight)	5 (herbicidal effect of not less than 90% by weight)	3 (herbicidal effect of not less than 50% by weight and less than 70% by weight)
